Laboratory results from patent US11104648B2, “Pyrazole derivative” (Zhejiang Research Institute of Chemical Industry Co., Ltd., priority 2018, dated 2021).
Where two headings read alike, the source gives them in different places.

Legend:
Format in all cases: in vivo
[1] = system: Eggs of Tetranychus Cinnabarinus; assay: Activity assay of eggs of Tetranychus cinnabarinus (spray method, ovicidal); settings: Tetranychus cinnabarinus; for pest or weed control at 2 µg/mL: concentration 2 mg/L
Summary of the method: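 Ovicidal spray test: compound dissolved in DMF, diluted with 1‰ Tween 80 (DMF ≤10%), sprayed on eggs laid during 24 h by females on broad bean leaves. Culture at 26±2° C, 70–80% RH, 16 h photoperiod; non-hatched eggs scored as dead when blank control hatched; three repeats.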

[2] = system: adult Tetranychus cinnabarinus; assay: Activity assay of adult Tetranychus cinnabarinus (whole-plant spray on bean seedlings); settings: 48 h; for pest or weed control at 1.25 µg/mL: concentration 1.25 mg/L
Summary of the method: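 Whole plants sprayed after adult mite inoculation and initial census, using compound dissolved in DMF and made up with 1‰ Tween 80 water (DMF not above 10%). Mortality derived from survivor counts at 48 h after treatment. Each treatment run in triplicate.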

[3] = system: Tetranychus cinnabarinus Nymphs; assay: Activity assay of Tetranychus cinnabarinus nymphs (spray on broad bean leaves); settings: 48 h; for pest or weed control at 2.5 µg/mL / pest or weed control at 2 µg/mL: read-out: nymph-killing activity; for pest or weed control at 2 µg/mL: concentration 2 mg/L; for pest or weed control at 0.5 µg/mL: nymphs, concentration 0.5 mg/L, parallel determination, read-out: Death rate (%)
Summary of the method: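 Mortality, judged as no response to gentle touch, was scored 48 h after spraying Tetranychus cinnabarinus nymphs on broad bean leaves (eggs from females removed after 24 h). Test solutions: DMF-dissolved compound, ≤10% DMF, in 1‰ Tween 80; 26±2° C., 70%–80% RH, 16 h light; triplicate, blank control.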

[4] = concentration 5 mg/L, spray, non-incubated eggs counted as dead, read-out: ovicidal activity
[5] = concentration 2.5 mg/L, read-out: adult mite-killing activity
[6] = spray, read-out: ovicidal activity
[7] = eggs, parallel determination, read-out: Death rate (%)
[8] = adult mites, parallel determination, read-out: Death rate (%)
[9] = read-out: adult mite-killing activity

SMILES	pest or weed control at 5 µg/mL [1, 4]	pest or weed control at 2.5 µg/mL [2, 5]	pest or weed control at 2.5 µg/mL ([3]; concentration 2.5 mg/L)	pest or weed control at 2 µg/mL [1, 6]	pest or weed control at 2 µg/mL [1, 7]	pest or weed control at 1.25 µg/mL [2, 8]	pest or weed control at 1.25 µg/mL [2, 9]	pest or weed control at 2 µg/mL [3]	pest or weed control at 0.5 µg/mL [3]	pest or weed control at 5 µg/mL ([1]; read-out: ovicidal activity)	pest or weed control at 2.5 µg/mL [2, 9]	pest or weed control at 2.5 µg/mL [3]
C=CC(=O)OC(C)O/C(=C(/C#N)c1ccc(C(C)(C)C)cc1)c1cc(C)nn1CC (stereo not drawn) [Compound 267]	≥ 90%	≥ 90%	≥ 95%	–	–	–	–	–	–	–	–	–
CCn1nc(C)c(Cl)c1/C(OCOC(C)=O)=C(\C#N)c1ccc(C(C)(C)C)cc1 [Compound 301]	≥ 90%	≥ 90%	≥ 95%	≥ 90%	95%	90%	≥ 90%	≥ 90%	90%	–	–	–
CCC(=O)OCO/C(=C(/C#N)c1ccc(C(C)(C)C)cc1)c1c(Cl)c(C)nn1CC [Compound 302]	≥ 90%	≥ 90%	≥ 95%	≥ 90%	97%	96%	≥ 90%	≥ 90%	96%	–	–	–
CCCC(=O)OCO/C(=C(/C#N)c1ccc(C(C)(C)C)cc1)c1c(Cl)c(C)nn1CC [Compound 303]	≥ 90%	≥ 90%	≥ 95%	–	–	–	–	–	–	–	–	–
CCn1nc(C)c(Cl)c1/C(OCOC(=O)C(C)C)=C(\C#N)c1ccc(C(C)(C)C)cc1 [Compound 304]	≥ 90%	≥ 90%	≥ 95%	–	–	–	–	–	–	–	–	–
CCn1nc(C)c(Cl)c1/C(OCOC(=O)C(C)(C)C)=C(\C#N)c1ccc(C(C)(C)C)cc1 [Compound 305]	≥ 90%	≥ 90%	≥ 95%	≥ 90%	–	–	≥ 90%	≥ 90%	–	–	–	–
CCCCC(=O)OCO/C(=C(/C#N)c1ccc(C(C)(C)C)cc1)c1c(Cl)c(C)nn1CC [Compound 306]	≥ 90%	≥ 90%	≥ 95%	–	–	–	–	–	–	–	–	–
CCn1nc(C)c(Cl)c1/C(OCOC(=O)CC(C)C)=C(\C#N)c1ccc(C(C)(C)C)cc1 [Compound 307]	≥ 90%	≥ 90%	≥ 95%	–	–	–	–	–	–	–	–	–
CCn1nc(C)c(Cl)c1/C(OCOC(=O)COC)=C(\C#N)c1ccc(C(C)(C)C)cc1 [Compound 308]	≥ 90%	≥ 90%	≥ 95%	–	–	–	–	–	–	–	–	–
CCn1nc(C)c(Cl)c1/C(OCOC(=O)C1CC1)=C(\C#N)c1ccc(C(C)(C)C)cc1 [Compound 309]	≥ 90%	≥ 90%	≥ 95%	≥ 90%	–	–	≥ 90%	≥ 90%	–	–	–	–
CCn1nc(C)c(Cl)c1/C(OCOC(=O)CSC)=C(\C#N)c1ccc(C(C)(C)C)cc1 [Compound 310]	≥ 90%	≥ 90%	≥ 95%	–	–	–	–	–	–	–	–	–
CCn1nc(C)c(Cl)c1/C(OCOC(=O)C1CCCCC1)=C(\C#N)c1ccc(C(C)(C)C)cc1 [Compound 311]	≥ 90%	≥ 90%	≥ 95%	–	–	–	–	–	–	–	–	–
CCn1nc(C)c(Cl)c1/C(OCOC(=O)CF)=C(\C#N)c1ccc(C(C)(C)C)cc1 [Compound 312]	–	–	–	–	–	–	–	–	–	≥ 90%	≥ 90%	≥ 95%
CCn1nc(C)c(Cl)c1/C(OCOC(=O)C(F)(F)F)=C(\C#N)c1ccc(C(C)(C)C)cc1 [Compound 313]	≥ 90%	≥ 90%	≥ 95%	–	–	–	–	–	–	–	–	–
